Measurements reported in US20230340011A1 (Asteroid Therapeutics, priority 2022, published 2023).

molecular target: SREBP-2 (Homo sapiens (Human), UniProt Q12772); test: In vitro assay SREBP-2: PathHunter U2OS SREBP-2 Nuclear Translocation Cell Line, U18666A-stimulated; format: cell-based; details: PathHunter U2OS SREBP-2 nuclear translocation cells, U18666A 10 μM, overnight (16 hours)

Molecule	IC50 [nM]
C[C@H](Oc1cncc(CO)c1)[C@H]1CC[C@H]2[C@@H]3CC=C4C[C@@H](O)CC[C@]4(C)[C@H]3CC[C@]12C [Example 269, (3S,8S,9S,10R,13S,14S,17S)-17-((S)-1-((5-(hydroxymethyl)pyridin-3-yl)oxy)ethyl)-10,13-dim ethyl-2,3,4,7,8,9,10,11,12,13,14,15,16,17-tetradecahydro-1H-cyclopenta[a]phenanthren-3-ol]	250 to 1000
C[C@H](CCC(=O)N1CCC(N2CCOCC2=O)CC1)[C@H]1CC[C@H]2[C@@H]3CC=C4C[C@@H](O)CC[C@]4(C)[C@H]3CC[C@]12C [Example 525, 4-(1-((R)-4-((3S,8S,9S,10R,13R,14S,17R)-3-hydroxy-10,13-dimethyl-2,3,4,7,8,9,10,11,12,13,14,15,16,17-tetradecahydro-1H-cyclopenta [a]phenanthren-17-yl)pentanoyl)piperidin-4-yl)morpholin-3-one]	< 250
C[C@H](CCC(=O)N1CCC(C(NC(=O)C(C)(C)O)C(F)(F)F)CC1)[C@H]1CC[C@H]2[C@@H]3CC=C4C[C@@H](O)CC[C@]4(C)[C@H]3CC[C@]12C (stereo partly drawn) [Example 479, 2-hydroxy-2-methyl-N-(2,2,2-trifluoro-1-(1-((R)-4-((3S,8S,9S,10R,13R,14S,17R)-3-hydroxy-10,13-dimethyl-2,3,4,7,8,9,10,11,12,13,14,15,16,17-tetradecahydro-1H-cyclopenta[a]phenanthren-17-yl)pentanoyl)piperidin-4-yl)ethyl)propanamide]	< 250
COC(=O)N1CCN(C(=O)O[C@@H](C)[C@H]2CC[C@H]3[C@@H]4CC=C5C[C@@H](O)CC[C@]5(C)[C@H]4CC[C@]23C)CC1 [Example 466, 1-(1S)-1-[(1S,3aS,3bS,7S,9aR,9bS,11aS)-7-hydroxy-9a,11a-dimethyl-1H,2H,3H,3aH,3bH,4H,6H,7H,8H,9H,9aH,9bH,10H,11H,11aH-cyclopenta[a]phenanthren-1-yl]ethyl 4-methyl piperazine-1,4-dicarboxylate]	250 to 1000
C[C@H](CCC(=O)N(C)CC(=O)O)[C@H]1CC[C@H]2[C@@H]3CC=C4C[C@@H](O)CC[C@]4(C)[C@H]3CC[C@]12C [Example 108, N—((R)-4-((3S,8S,9S,10R,13R,14S,17R)-3-hydroxy-10,13-dimethyl-2,3,4,7,8,9,10,11,12,13,14,15,16,17-tetradecahydro-1H-cyclopenta[a]phenanthren-17-yl)pentanoyl)-N-methylglycine]	> 10000
CC(=O)N1CCC2(C1)CN(C(=O)CC[C@@H](C)[C@H]1CC[C@H]3[C@@H]4CC=C5C[C@@H](O)CC[C@]5(C)[C@H]4CC[C@]13C)C2 [Example 327, (4R)-4-[(1R,3aS,3bS,7S,9aR,9bS,11aR)-7-hydroxy-9a,11a-dimethyl-1H,2H,3H,3aH,3bH,4H,6H,7H,8H,9H,9aH,9bH,10H,11H,11aH-cyclopenta[a]phenanthren-1-yl]-1-{6-acetyl-2,6-diazaspiro[3.4]octan-2-yl}pentan-1-one]	250 to 1000
CC#CC1(O)CCN(C(=O)CC[C@@H](C)[C@H]2CC[C@H]3[C@@H]4CC=C5C[C@@H](O)CC[C@]5(C)[C@H]4CC[C@]23C)CC1 [Example 90, (R)-4-((3S,8S,9S,10R,13R,14S,17R)-3-hydroxy-10,13-dimethyl-2,3,4,7,8,9,10,11,12,13,14,15,16,17-tetradecahydro-1H-cyclopenta[a]phenanthren-17-yl)-1-(4-hydroxy-4-(prop-1-yn-1-yl)piperidin-1-yl)pentan-1-one]	< 250
CC(=O)N1CCC(C(=O)N(C)CC[C@@H](C)[C@H]2CC[C@H]3[C@@H]4CC=C5C[C@@H](O)CC[C@]5(C)[C@H]4CC[C@]23C)CC1 [Example 294, 1-acetyl-N—((R)-3-((3S,8S,9S,10R,13R,14S,17R)-3-hydroxy-10,13-dimethyl-2,3,4,7,8,9,10,11,12,13,14,15,16,17-tetradecahydro-1H-cyclopenta[a]phenanthren-17-yl)butyl)-N-methylpiperidine-4-carboxamide]	250 to 1000
C[C@H](CCC(=O)N1CC[C@H](CO)O1)[C@H]1CC[C@H]2[C@@H]3CC=C4C[C@@H](O)CC[C@]4(C)[C@H]3CC[C@]12C [Example 43, (R)-4-((3S,8S,9S,10R,13R,14S,17R)-3-hydroxy-10,13-dimethyl-2,3,4,7,8,9,10,11,12,13,14,15,16,17-tetradecahydro-1H-cyclopenta[a]phenanthren-17-yl)-1-((R)-5-(hydroxymethyl)isoxazolidin-2-yl)pentan-1-one]	250 to 1000
C[C@H](CCC(=O)N1CCCC(c2ccnnc2)C1)[C@H]1CC[C@H]2[C@@H]3CC=C4C[C@@H](O)CC[C@]4(C)[C@H]3CC[C@]12C (stereo partly drawn) [Example 345, (4R)-4-((3S,8S,9S,10R,13R,14S,17R)-3-hydroxy-10,13-dimethyl-2,3,4,7,8,9,10,11,12,13,14,15,16,17-tetradecahydro-1H-cyclopenta[a]phenanthren-17-yl)-1-(3-(pyridazin-4-yl)piperidin-1-yl)pentan-1-one]	250 to 1000
CCCCC1(O)CCN(C(=O)CC[C@@H](C)[C@H]2CC[C@H]3[C@@H]4CC=C5C[C@@H](O)CC[C@]5(C)[C@H]4CC[C@]23C)CC1 [Example 92, (R)-1-(4-butyl-4-hydroxypiperidin-1-yl)-4-((3S,8S,9S,10R,13R,14S,17R)-3-hydroxy-10,13-dimethyl-2,3,4,7,8,9,10,11,12,13,14,15,16,17-tetradecahydro-1H-cyclopenta[a]phenanthren-17-yl)pentan-1-one]	< 250
(4R)-4-[(1R,3aS,3bS,7S,9aR,9bS,11aR)-7-hydroxy-9a,11a-dimethyl-1H,2H,3H,3aH,3bH,4H,6H,7H,8H,9H,9aH,9bH,10H,11H,11aH-cyclopenta[a]phenanthren-1-yl]-1-[(3R)-3-(pyrimidin-4-yloxy)piperidin-1-yl]pentan-1-one [Example 462]	< 250
C[C@H](COc1ccc(CO)cn1)[C@H]1CC[C@H]2[C@@H]3CC=C4C[C@@H](O)CC[C@]4(C)[C@H]3CC[C@]12C [Example 445, (3S,8S,9S,10R,13S,14S,17R)-17-((S)-1-((5-(hydroxymethyl)pyridin-2-yl)oxy)propan-2-yl)-10,13-dimethyl-2,3,4,7,8,9,10,11,12,13,14,15,16,17-tetradecahydro-1H-cyclopenta[a]phenanthren-3-ol]	250 to 1000
C[C@H](CCC(=O)N1CC[C@H](NC(=O)c2ccncn2)C1)[C@H]1CC[C@H]2[C@@H]3CC=C4C[C@@H](O)CC[C@]4(C)[C@H]3CC[C@]12C [Example 528, N—((S)-1-((R)-4-((3S,8S,9S,10R,13R,14S,17R)-3-hydroxy-10,13-dimethyl-2,3,4,7,8,9,10,11,12,13,14,15,16,17-tetradecahydro-1H-cyclopenta[a]phenanthren-17-yl)pentanoyl)pyrrolidin-3-yl)pyrimidine-4-carboxamide]	< 250
CCOc1cccnc1CC[C@@H](C)[C@H]1CC[C@H]2[C@@H]3CC=C4C[C@@H](O)CC[C@]4(C)[C@H]3CC[C@]12C [Example 457, (1R,3aS,3bS,7S,9aR,9bS,11aR)-1-[(2R)-4-(3-ethoxypyridin-2-yl)butan-2-yl]-9a,11a-dimethyl-1H,2H,3H,3aH,3bH,4H,6H,7H,8H,9H,9aH,9bH,10H,11H,11aH-cyclopenta[a]phenanthren-7-ol]	< 250
Cc1cccnc1OC[C@@H](C)[C@H]1CC[C@H]2[C@@H]3CC=C4C[C@@H](O)CC[C@]4(C)[C@H]3CC[C@]12C [Example 443, (3S,8S,9S,10R,13S,14S,17R)-10,13-dimethyl-17-((S)-1-((3-methylpyridin-2-yl)oxy)propan-2-yl)-2,3,4,7,8,9,10,11,12,13,14,15,16,17-tetradecahydro-1H-cyclopenta[a]phenanthren-3-ol]	< 250
C[C@H](CCC(=O)N1CCC(O)(CO)CC1)[C@H]1CC[C@H]2[C@@H]3CC=C4C[C@@H](O)CC[C@]4(C)[C@H]3CC[C@]12C [Example 150, (R)-4-((3S,8S,9S,10R,13R,14S,17R)-3-hydroxy-10,13-dimethyl-2,3,4,7,8,9,10,11,12,13,14,15,16,17-tetradecahydro-1H-cyclopenta[a]phenanthren-17-yl)-1-(4-hydroxy-4-(hydroxymethyl)piperidin-1-yl)pentan-1-one]	< 250
C[C@H](CCC(=O)N1CCC(C)(CN2CCOC(C)(C)C2=O)CC1)[C@H]1CC[C@H]2[C@@H]3CC=C4C[C@@H](O)CC[C@]4(C)[C@H]3CC[C@]12C [Example 523, 4-((1-((R)-4-((3S,8S,9S,10R,13R,14S,17R)-3-hydroxy-10,13-dimethyl-2,3,4,7,8,9,10,11,12,13,14,15,16,17-tetradecahydro-1H-cyclopenta[a]phenanthren-17-yl)pentanoyl)-4-methylpiperidin-4-yl)methyl)-2,2-dimethylmorpholin-3-one]	< 250
C[C@H](CCC(=O)N1CCC(O)(CC(F)(F)F)CC1)[C@H]1CC[C@H]2[C@@H]3CC=C4C[C@@H](O)CC[C@]4(C)[C@H]3CC[C@]12C [Example 152, (R)-4-((3S,8S,9S,10R,13R,14S,17R)-3-hydroxy-10,13-dimethyl-2,3,4,7,8,9,10,11,12,13,14,15,16,17-tetradecahydro-1H-cyclopenta[a]phenanthren-17-yl)-1-(4-hydroxy-4-(2,2,2-trifluoroethyl)piperidin-1-yl) pentan-1-one]	< 250
C[C@H](Oc1cncc(CO)c1)[C@H]1CC[C@H]2[C@@H]3CC=C4C[C@@H](O)CC[C@]4(C)[C@H]3CC[C@]12C [Example 436, (3S,8S,9S,10R,13S,14S,17S)-17-((S)-1-((5-(hydroxymethyl)pyridin-3-yl)oxy)ethyl)-10,13-dim ethyl-2,3,4,7,8,9,10,11,12,13,14,15,16,17-tetradecahydro-1H-cyclopenta[a]phenanthren-3-ol]	250 to 1000
Cc1ccncc1O[C@@H](C)[C@H]1CC[C@H]2[C@@H]3CC=C4C[C@@H](O)CC[C@]4(C)[C@H]3CC[C@]12C [Example 271, (3S,8S,9S,10R,13S,14S,17S)-10,13-dimethyl-17-((S)-1-((4-methylpyridin-3-yl)oxy)ethyl)-2,3,4,7,8,9,10,11,12,13,14,15,16,17-tetradecahydro-1H-cyclopenta[a]phenanthren-3-ol]	250 to 1000
